Data reported in PMC11845477, “Exploring the principles behind antibiotics with limited resistance” (Nature Communications, 2025).
Where “and” joins values, the source holds several entries; their conditions need not be identical. Equal entries are not always repeated. Where two headings read alike, the source gives them in different places. Where a SMILES comes first, the peptide text is derived from it. Bridges are numbered along the chain shown (N, C = ends). [ ]: non-standard residue; d: D form. The star is where a group is joined. X1 = NC[C@@H](CC(=O)*)c1cccc(Cl)c1; Dab = NCC[C@H](N)C(=O)O; Dap = NC[C@H](N)C(=O)O

Columns and labels:
[1] = tested on: P. aeruginosa ATCC BAA-3107 (SEN) and P. aeruginosa LESB58 (MDR); test: Frequency-of-resistance (FoR) assay, relative MIC of mutants; format: cell-based, Pseudomonas aeruginosa
Description: The susceptibility of antibiotics to resistance development was evaluated in two strains of each bacterial species: a multidrug-resistant strain and an antibiotic-sensitive strain of Escherichia coli, Klebsiella pneumoniae, Acinetobacter baumannii, and Pseudomonas aeruginosa. To explore first-step resistance, we previously used a standard protocol for spontaneous frequency-of-resistance analysis (FoR assay) at multiple concentrations of each antibiotic[10],[28],[31]–[33]. […] For all other combinations, approximately 10^10 bacterial cells were exposed to one of each antibiotic on agar plates for two days at concentrations where the given strain is susceptible. We examined resistance levels by contrasting the minimum inhibitory concentration (MICs) of the mutated strains to the original wild-type bacterial strain (i.e., relative MIC).
To estimate the frequency of spontaneous mutations that confer resistance in a microbial population, we conducted a frequency of resistance (FoR) assay following established protocols[10],[31]–[33]. […] Prior to plating, bacteria were grown overnight in MHB medium at 37 °C and 250 RPM, then centrifuged and washed in MHB. All experiments were performed in triplicate, and plates were incubated at 37 °C for 48 hours. Total colony-forming units (CFUs) were determined by plating appropriate dilutions onto antibiotic-free MHB agar. Resistance frequencies were calculated by dividing the number of resistant colonies by the initial viable cell count. From the plates with the highest antibiotic concentration, ten colonies were selected for MIC determination and whole-genome sequencing.
A robotic liquid handling system was used to automatically prepare a 11 to 16-step serial dilution in 384-well microtiter plates (Greiner). A final concentration of 5 × 10^5 bacterial cells per mL were inoculated into each well containing 60 µL MHB medium. Bacterial cultures were incubated at 37 °C with continuous shaking (Infors shaker, 900 rpm with 3 mm throw) for 18 hours (2 replicates from each). Cell growth was monitored by measuring the optical density (OD600 values, using Biotek Synergy microplate reader). MIC was defined as the antibiotic concentration of complete growth inhibition (i.e., OD600 < 0.05). Relative MIC was calculated as follows:1 relativeMIC=MICevolved/MICancestor […]
Supplementary Figure 3. Resistance levels following the frequency of resistance assay across bacterial strains. The level of resistance was measured as the fold change in relative MIC between evolved and ancestral strains. Data are grouped by bacterial strain (A. baumannii (AB), E. coli (EC), K. pneumoniae (KP), and P. aeruginosa (PA)) and categorized as either multidrug-resistant (MDR) or sensitive (SEN). Each data point represents a laboratory evolved line, and boxplots show the median, first and third quartiles, with whiskers indicating the 5th and 95th percentiles. […]
analysis was performed using two-sided Dunn’s post-hoc test with Benjamini-Hochberg correction for multiple comparisons (**/ * indicates p < 0.01/ 0.05). For detailed information on antibiotic and bacterial species, see Supplementary Table 1. For mode of action groups, refer to Table 1. Source data are provided as a Source Data file.

E. coli = format: cell-based, Escherichia coli; conditions: Escherichia coli, survival at 10xMIC for 4 hours, single replicates, (fig 9a source data)
Description: (§1) We employed image analysis to quantify bacterial survival under fixed antibiotic concentrations (10xMIC for 4 hours) on E. coli, A. baumannii, K. pneumoniae, and P. aeruginosa. […] Survival rate was quantified by calculating the ratio of the viable cells after antibiotic treatment and the total initial viable cell count.
(§2) Fig. 9 Killing kinetics of the studied antibiotics. a Bacterial survival rate in response to toxic antibiotic exposure. […] The bars indicate the survival rate (log10) compared to the untreated initial viable cell count (see “Methods”). Data are presented as mean values of 5 biological replicates ± SEM. The antibiotic group differentiation is denoted by color. […] Survival was estimated by measuring cell viability (colony-forming units/ml) of 2 biologically independent strains following a 4-hour exposure to different concentrations of 16 antibiotics on E. coli ATCC25922 (for further details, see “Methods”). The antibiotic concentration that kills 99.9% of the E. coli population is indicated as a vertical dotted line (see Supplementary Data 5). Error bars represent standard error calculated from the colony counts by Poisson’s model. A Hill function was fitted to the dose-response data from two biological replicates, producing sigmoidal curves (Supplementary Data 5). The Hill coefficient reflects how steeply the survival rate decreases in response to increasing antibiotic concentration ([…]). […] X-axis label colors indicate mode of action groups. For detailed information on antibiotic and bacterial species, see Supplementary Data 1. Source data are provided as a Source Data file.
(§3) In this current study, the killing kinetics of each antibiotic was measured according to a previously established experimental protocol[62] with minor modifications. During this assay, the bacterial cultures were exposed to antibiotics in 96-well assay plates and their viability after 4 hours of exposure was quantified by two methods: i) microplating and colony counting or ii) fluorescent staining of cells and counting of the fluorescent units.
(§4) Specifically, these experiments were performed in the following steps: (1) Preparation of bacterial stocks. Single colonies from each strain were isolated and grown overnight in MHB medium at 37 °C, 160 rpm. In case of the fluorescently tagged E. coli strains, the medium was supplemented with 10 μg/mL chloramphenicol, to maintain the pZS2R plasmid. Overnight cultures were diluted 1:5000 and grown to an optical density at 600 nm (OD600) of 0.25. These cultures were concentrated by centrifugation and small aliquots of 50 μL containing ~2.2 × 10^9 cells were frozen in glycerol (stored at −80 °C). (2) Preparing assay plates with antibiotics. 96-well plates were filled with 235 μL MHB and supplemented with antibiotics using an automated digital dispenser (D300e, Tecan). In the case of SCH79797, we used minimal media. […] For testing the clearance efficacy of each antibiotic at a single lethal dose, the 10x of the MIC for each antibiotic-strain pair were prepared in at least three replicates. (3) Antibiotic exposure. During the dose response assay, frozen cultures of the E. coli strains expressing YFP and mCherry were thawed and mixed at a 1:1 ratio, diluted 1:1000 in 30 mL MHB and incubated for 45 min at 37 °C and 160 rpm. During the single-dose assay, the frozen cultures of experimental strains (E. coli, K. pneumoniae, A. baumannii) were also thawed and diluted 1:1000 in 30 mL MHB and incubated at 37 °C to reach an OD of 0.25 and 160 rpm. Following this incubation phase, these bacterial cultures were then aliquoted into the 96-well deep-well antibiotic plates (15 μL culture; total volume of 250 μL) at an inoculum density of about 10^7 CFU.

A. baumannii = test: Bacterial survival at 10xMIC for 4 hours; format: cell-based, Acinetobacter baumannii; conditions: Acinetobacter baumannii, survival at 10xMIC for 4 hours, single replicates, (fig 9a source data)
Description: as §1, §2, §3, §4

[2] = P. aeruginosa ATCC BAA 3107 (PA-SEN), evolved line 1
[3] = P. aeruginosa ATCC BAA 3107 (PA-SEN), evolved line 1, evolved vs ancestor
[4] = P. aeruginosa ATCC BAA 3107 (PA-SEN), evolved line 2
[5] = P. aeruginosa ATCC BAA 3107 (PA-SEN), evolved line 2, evolved vs ancestor
[6] = P. aeruginosa ATCC BAA 3107 (PA-SEN), evolved line 3
[7] = P. aeruginosa ATCC BAA 3107 (PA-SEN), evolved line 3, evolved vs ancestor

| Compound | MIC of evolved line [1, 2] [µg/mL] | Relative MIC [1, 3] | MIC of evolved line [1, 4] [µg/mL] | Relative MIC [1, 5] | MIC of evolved line [1, 6] [µg/mL] | Relative MIC [1, 7] | also measured |
| --- | --- | --- | --- | --- | --- | --- | --- |
| CN(C)[C@@H]1C(O)=C(C(N)=O)C(=O)[C@@]2(O)C(O)=C3C(=O)c4c(O)c(NC(=O)CN5CCCC5)cc(F)c4C[C@H]3C[C@@H]12 [Eravacycline] | 32 | 8 | 32 | 8 | 32 | 8 | Survival rate (log10) (E. coli; listed as ERA): -1.588 log10 and -1.262 log10 and -1.406 log10 and -1.2833 log10 and -1.1562 log10; Survival rate (log10) (A. baumannii; listed as ERA): -1.499 log10 and -1.238 log10 and -1.644 log10 and -1.596 log10 and -1.425 log10 |
| CNC(C)C1CCC(N)C(OC2C(N)CC(N)C(OC3OCC(C)(O)C(NC)C3O)C2O)O1 (stereo not drawn) [Gentamicin] | 8 | 8 | 8 | 8 | 8 | 8 | Survival rate (log10) (E. coli; listed as GEN): -0.32 log10 and -0.3695 log10 and -0.2419 log10 and -0.4019 log10 and -0.3632 log10; Survival rate (log10) (A. baumannii; listed as GEN): -1.432 log10 and -1.215 log10 and -1.434 log10 and -1.4437 log10 and -1.516 log10 |
| CC(C)C[C@@H]1NC(=O)[C@@H](Cc2ccccc2)NC(=O)[C@H](CCN)NC(=O)[C@@H](NC(=O)[C@H](CN)NC(=O)[C@@H](NC(=O)C[C@H](CN)c2cccc(Cl)c2)[C@@H](C)O)CCNC(=O)[C@H]([C@@H](C)O)NC(=O)[C@H](CCN)NC(=O)[C@H](CCN)NC1=O [SPR206] (X1-T[Dap][Dab][Dab][dF]L[Dab][Dab]T; lactam 3-C (inferred); N-terminus assumed) | 1 | 1 | 1 | 1 | 1 | 1 | Relative MIC ([1]; FoR assay, Pseudomonas aeruginosa ATCC BAA 3107 (PA-SEN), evolved line 1): 1; Relative MIC ([1]; FoR assay, Pseudomonas aeruginosa ATCC BAA 3107 (PA-SEN), evolved line 2): 1; Relative MIC ([1]; FoR assay, Pseudomonas aeruginosa ATCC BAA 3107 (PA-SEN), evolved line 3): 1; MIC of evolved line ([1]; P. aeruginosa LESB 58 (PA-MDR), evolved line 1): 128 µg/mL; Relative MIC ([1]; P. aeruginosa LESB 58 (PA-MDR), evolved line 1, evolved vs ancestor): 32; MIC of evolved line ([1]; P. aeruginosa LESB 58 (PA-MDR), evolved line 2): 64 µg/mL; Relative MIC ([1]; P. aeruginosa LESB 58 (PA-MDR), evolved line 2, evolved vs ancestor): 16; MIC of evolved line ([1]; P. aeruginosa LESB 58 (PA-MDR), evolved line 3): 64 µg/mL; Relative MIC ([1]; P. aeruginosa LESB 58 (PA-MDR), evolved line 3, evolved vs ancestor): 16; Survival rate (log10) (E. coli; listed as SPR): -4.747 log10 and -3.687 log10 and -3.935 log10 and -4.007 log10 and -3.902 log10; Survival rate (log10) (A. baumannii; listed as SPR): -1.951 log10 and -2.839 log10 and -3.084 log10 and -1.511 log10 and -2.915 log10 |
